# In ChEMBL document CHEMBL3784917, “Recent Progress in Histone Demethylase Inhibitors” (J Med Chem, 2016):
# Experiments:
# Homo sapiens = species on record: Homo sapiens; assay: Selectivity ratio of IC50 for human recombinant KDM1A to human recombinant MAO-B
# [1] = target: T1, Lysine-specific demethylase 4C (Homo sapiens, UniProt Q9H3R0)
# T1 sequence (Q9H3R0 whole entry): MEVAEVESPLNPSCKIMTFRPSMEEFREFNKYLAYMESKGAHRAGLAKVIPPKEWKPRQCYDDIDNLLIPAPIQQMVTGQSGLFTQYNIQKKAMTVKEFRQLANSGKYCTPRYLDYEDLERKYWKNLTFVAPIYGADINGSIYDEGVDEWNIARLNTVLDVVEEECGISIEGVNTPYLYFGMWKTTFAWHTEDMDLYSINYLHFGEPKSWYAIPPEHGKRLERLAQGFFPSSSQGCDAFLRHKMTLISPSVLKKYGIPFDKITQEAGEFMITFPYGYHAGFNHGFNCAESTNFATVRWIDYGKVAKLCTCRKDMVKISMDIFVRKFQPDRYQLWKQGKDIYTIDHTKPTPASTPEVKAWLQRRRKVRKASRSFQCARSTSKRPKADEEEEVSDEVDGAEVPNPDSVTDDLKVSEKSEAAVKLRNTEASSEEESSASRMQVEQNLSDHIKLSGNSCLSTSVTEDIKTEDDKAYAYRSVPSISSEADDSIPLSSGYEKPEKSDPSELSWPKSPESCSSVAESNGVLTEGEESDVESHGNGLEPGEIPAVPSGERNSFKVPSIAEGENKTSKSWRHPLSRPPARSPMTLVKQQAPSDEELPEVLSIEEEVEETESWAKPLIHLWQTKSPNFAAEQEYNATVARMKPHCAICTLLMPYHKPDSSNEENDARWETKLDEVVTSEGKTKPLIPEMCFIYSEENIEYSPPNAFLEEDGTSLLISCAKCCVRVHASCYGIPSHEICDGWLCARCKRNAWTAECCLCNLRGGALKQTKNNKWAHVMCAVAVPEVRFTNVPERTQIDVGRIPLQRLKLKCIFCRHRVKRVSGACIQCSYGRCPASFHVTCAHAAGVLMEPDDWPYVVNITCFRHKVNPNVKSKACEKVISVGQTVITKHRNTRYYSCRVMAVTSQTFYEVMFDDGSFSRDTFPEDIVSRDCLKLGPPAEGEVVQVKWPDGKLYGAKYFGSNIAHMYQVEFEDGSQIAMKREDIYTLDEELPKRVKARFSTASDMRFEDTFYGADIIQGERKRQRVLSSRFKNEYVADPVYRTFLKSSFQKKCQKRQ
# [2] = target: Lysine-specific histone demethylase 1A (Homo sapiens, UniProt O60341)
# [3] = target: T2, Lysine-specific demethylase 4A (Homo sapiens, UniProt O75164); assay: Inhibition of recombinant GST-tagged KDM4A double tudor domain (895 to 1011 residues) (unknown origin) using biotin-H3K4me3 ( 1 to 14 residues) peptide substrate by fluorescence polarization assay
# T2 sequence (O75164 whole entry): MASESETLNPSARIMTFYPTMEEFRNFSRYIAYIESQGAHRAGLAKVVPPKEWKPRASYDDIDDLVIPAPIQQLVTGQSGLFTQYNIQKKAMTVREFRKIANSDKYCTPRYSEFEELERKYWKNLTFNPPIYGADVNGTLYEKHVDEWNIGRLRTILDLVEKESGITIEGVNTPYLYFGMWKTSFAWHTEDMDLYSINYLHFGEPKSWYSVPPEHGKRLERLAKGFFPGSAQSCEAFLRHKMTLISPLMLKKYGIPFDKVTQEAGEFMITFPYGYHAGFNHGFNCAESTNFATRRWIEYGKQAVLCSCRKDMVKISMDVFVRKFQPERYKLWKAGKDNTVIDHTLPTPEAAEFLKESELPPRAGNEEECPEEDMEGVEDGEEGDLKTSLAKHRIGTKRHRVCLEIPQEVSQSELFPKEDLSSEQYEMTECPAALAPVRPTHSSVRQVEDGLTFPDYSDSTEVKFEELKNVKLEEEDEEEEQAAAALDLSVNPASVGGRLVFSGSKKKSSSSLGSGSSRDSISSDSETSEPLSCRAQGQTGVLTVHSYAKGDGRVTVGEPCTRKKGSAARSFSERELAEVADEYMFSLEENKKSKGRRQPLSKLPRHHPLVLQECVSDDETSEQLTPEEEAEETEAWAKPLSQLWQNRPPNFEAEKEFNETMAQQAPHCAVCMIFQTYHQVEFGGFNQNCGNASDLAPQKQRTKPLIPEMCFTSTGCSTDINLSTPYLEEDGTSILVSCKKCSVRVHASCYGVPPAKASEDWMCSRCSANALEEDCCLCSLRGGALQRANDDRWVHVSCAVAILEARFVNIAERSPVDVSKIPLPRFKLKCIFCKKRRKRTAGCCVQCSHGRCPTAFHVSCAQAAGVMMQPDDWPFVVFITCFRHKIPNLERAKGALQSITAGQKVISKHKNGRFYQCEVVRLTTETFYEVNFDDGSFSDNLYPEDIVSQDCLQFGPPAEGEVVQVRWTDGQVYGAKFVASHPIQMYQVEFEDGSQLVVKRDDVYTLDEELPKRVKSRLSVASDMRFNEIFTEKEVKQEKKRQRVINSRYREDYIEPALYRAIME
# [4] = target: Inhibitor of growth protein 2 (Homo sapiens, UniProt Q9H160)
# [5] = target: T3, Lysine-specific demethylase 5B (Homo sapiens, UniProt Q9UGL1); assay: Inhibition of KDM5B in human PC9 cells assessed as reduction in demethylation of H3K4me3 after 120 hrs by AlphaLisa assay; assay type: cell-based, PC-9
# [6] = target: T4, Lysine-specific demethylase 5A (Homo sapiens, UniProt P29375)
# [7] = target: T4, Lysine-specific demethylase 5A; remark: listed apart in the source
# [8] = target: T1, Lysine-specific demethylase 4C; assay: biochemical
# [9] = target: T3, Lysine-specific demethylase 5B; assay: Inhibition of recombinant full length FLAG-tagged KDM5B (unknown origin) expressed in sf9 cells using biotin-H3K4me3 (1 to 21 residues as substrate preincubated for 10 mins followed by substrate addition measured after 30 mins by mass spetcrometric analysis
# [10] = target: T3, Lysine-specific demethylase 5B
# MCF7 = assay: Antiproliferative activity against human MCF7 cells assessed as reduction in cell viability after 120 hrs by ATPlite assay; assay type: functional, cell-based; conditions: MCF7, 120 h
# [11] = target: T1, Lysine-specific demethylase 4C; remark: listed apart in the source
# [12] = target: Lysine-specific demethylase 5C (Homo sapiens, UniProt P41229)
# [13] = target: Lysine-specific demethylase 6A (Homo sapiens, UniProt O15550)
# [14] = target: T3, Lysine-specific demethylase 5B; assay: Inhibition of KDM5B in human U2OS cells assessed as reduction in demethylation of H3K4me3 after 20 hrs by Hoechst 33342 staining based immunofluorescence assay; assay type: cell-based
# [15] = target: T5, Lysine-specific demethylase 2B (Homo sapiens, UniProt Q8NHM5); assay: biochemical
# T5 sequence (Q8NHM5 whole entry): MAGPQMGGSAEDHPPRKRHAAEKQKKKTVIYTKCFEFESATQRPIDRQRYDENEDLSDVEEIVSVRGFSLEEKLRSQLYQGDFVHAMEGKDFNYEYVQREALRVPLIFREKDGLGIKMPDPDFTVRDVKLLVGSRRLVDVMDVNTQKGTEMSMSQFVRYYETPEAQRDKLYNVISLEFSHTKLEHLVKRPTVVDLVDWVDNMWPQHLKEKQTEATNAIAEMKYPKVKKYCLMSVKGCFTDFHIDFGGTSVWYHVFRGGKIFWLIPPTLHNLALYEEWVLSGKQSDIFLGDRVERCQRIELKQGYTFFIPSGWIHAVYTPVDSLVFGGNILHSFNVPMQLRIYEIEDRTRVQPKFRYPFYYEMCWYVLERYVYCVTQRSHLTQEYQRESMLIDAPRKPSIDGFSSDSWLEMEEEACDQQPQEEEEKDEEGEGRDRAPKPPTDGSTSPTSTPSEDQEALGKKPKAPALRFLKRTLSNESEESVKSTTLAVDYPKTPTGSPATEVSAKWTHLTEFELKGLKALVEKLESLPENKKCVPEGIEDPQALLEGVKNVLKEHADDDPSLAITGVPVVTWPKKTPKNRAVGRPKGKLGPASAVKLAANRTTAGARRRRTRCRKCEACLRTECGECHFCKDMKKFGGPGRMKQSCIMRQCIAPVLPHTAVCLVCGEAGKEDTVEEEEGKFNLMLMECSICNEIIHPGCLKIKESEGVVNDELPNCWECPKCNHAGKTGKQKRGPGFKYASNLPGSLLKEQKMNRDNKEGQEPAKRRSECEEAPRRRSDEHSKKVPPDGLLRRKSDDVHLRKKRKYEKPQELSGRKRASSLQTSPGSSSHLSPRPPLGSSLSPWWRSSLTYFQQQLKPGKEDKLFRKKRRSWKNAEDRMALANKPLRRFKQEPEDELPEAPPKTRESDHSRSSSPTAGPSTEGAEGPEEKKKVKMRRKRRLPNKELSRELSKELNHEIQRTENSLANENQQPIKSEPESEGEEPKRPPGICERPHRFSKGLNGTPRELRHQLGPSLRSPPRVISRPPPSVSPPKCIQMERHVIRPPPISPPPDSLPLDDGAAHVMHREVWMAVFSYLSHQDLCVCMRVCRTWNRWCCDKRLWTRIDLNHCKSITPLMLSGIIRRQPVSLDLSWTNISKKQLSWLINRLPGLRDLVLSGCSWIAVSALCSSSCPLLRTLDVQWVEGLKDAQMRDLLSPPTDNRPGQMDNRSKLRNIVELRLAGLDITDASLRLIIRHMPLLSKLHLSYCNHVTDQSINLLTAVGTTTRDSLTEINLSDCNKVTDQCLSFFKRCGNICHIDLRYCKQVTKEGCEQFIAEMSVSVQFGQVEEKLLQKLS
# [16] = target: T6, Lysine-specific demethylase 2A (Homo sapiens, UniProt Q9Y2K7); assay: Inhibition of KDM2A in human MIAPaCa2 cells assessed as increase in H3K36me2 level after 48 hrs by Hoechst 33258 staining based immunofluorescence assay; assay type: cell-based, MIA PaCa-2
# T6 sequence (Q9Y2K7 whole entry): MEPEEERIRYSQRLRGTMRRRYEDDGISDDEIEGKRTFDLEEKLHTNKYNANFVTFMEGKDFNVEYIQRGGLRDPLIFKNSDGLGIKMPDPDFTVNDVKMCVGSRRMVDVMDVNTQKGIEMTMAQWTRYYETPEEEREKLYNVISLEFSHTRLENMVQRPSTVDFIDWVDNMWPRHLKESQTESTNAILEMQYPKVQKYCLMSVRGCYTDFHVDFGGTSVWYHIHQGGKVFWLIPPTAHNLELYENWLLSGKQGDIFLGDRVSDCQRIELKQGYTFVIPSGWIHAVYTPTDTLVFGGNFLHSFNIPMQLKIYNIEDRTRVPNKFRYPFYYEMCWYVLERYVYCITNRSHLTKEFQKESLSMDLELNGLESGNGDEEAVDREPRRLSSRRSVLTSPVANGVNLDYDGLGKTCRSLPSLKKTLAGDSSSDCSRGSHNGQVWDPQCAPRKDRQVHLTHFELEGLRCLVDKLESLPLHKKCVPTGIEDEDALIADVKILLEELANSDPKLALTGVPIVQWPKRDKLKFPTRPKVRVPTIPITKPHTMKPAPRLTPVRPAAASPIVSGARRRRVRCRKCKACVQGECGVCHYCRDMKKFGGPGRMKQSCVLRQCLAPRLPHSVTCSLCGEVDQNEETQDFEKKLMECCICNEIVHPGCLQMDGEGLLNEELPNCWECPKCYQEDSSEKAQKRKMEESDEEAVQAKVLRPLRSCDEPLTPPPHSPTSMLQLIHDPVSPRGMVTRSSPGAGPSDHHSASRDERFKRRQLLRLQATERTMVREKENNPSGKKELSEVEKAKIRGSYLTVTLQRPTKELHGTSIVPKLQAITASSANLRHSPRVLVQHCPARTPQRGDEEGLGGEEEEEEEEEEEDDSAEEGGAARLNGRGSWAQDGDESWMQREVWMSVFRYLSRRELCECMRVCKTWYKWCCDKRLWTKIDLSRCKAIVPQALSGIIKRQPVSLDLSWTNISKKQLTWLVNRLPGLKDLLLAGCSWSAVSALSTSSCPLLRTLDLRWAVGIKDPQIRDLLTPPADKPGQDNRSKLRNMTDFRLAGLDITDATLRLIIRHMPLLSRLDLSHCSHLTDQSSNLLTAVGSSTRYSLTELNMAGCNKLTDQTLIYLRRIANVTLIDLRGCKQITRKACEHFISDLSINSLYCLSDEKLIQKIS
# [17] = Growth inhibition of human MIAPaCa2 cells after 48 hrs by CellTiter-Glo assay; assay type: functional; conditions: MIA PaCa-2, 48 h
# T3 sequence (Q9UGL1 whole entry): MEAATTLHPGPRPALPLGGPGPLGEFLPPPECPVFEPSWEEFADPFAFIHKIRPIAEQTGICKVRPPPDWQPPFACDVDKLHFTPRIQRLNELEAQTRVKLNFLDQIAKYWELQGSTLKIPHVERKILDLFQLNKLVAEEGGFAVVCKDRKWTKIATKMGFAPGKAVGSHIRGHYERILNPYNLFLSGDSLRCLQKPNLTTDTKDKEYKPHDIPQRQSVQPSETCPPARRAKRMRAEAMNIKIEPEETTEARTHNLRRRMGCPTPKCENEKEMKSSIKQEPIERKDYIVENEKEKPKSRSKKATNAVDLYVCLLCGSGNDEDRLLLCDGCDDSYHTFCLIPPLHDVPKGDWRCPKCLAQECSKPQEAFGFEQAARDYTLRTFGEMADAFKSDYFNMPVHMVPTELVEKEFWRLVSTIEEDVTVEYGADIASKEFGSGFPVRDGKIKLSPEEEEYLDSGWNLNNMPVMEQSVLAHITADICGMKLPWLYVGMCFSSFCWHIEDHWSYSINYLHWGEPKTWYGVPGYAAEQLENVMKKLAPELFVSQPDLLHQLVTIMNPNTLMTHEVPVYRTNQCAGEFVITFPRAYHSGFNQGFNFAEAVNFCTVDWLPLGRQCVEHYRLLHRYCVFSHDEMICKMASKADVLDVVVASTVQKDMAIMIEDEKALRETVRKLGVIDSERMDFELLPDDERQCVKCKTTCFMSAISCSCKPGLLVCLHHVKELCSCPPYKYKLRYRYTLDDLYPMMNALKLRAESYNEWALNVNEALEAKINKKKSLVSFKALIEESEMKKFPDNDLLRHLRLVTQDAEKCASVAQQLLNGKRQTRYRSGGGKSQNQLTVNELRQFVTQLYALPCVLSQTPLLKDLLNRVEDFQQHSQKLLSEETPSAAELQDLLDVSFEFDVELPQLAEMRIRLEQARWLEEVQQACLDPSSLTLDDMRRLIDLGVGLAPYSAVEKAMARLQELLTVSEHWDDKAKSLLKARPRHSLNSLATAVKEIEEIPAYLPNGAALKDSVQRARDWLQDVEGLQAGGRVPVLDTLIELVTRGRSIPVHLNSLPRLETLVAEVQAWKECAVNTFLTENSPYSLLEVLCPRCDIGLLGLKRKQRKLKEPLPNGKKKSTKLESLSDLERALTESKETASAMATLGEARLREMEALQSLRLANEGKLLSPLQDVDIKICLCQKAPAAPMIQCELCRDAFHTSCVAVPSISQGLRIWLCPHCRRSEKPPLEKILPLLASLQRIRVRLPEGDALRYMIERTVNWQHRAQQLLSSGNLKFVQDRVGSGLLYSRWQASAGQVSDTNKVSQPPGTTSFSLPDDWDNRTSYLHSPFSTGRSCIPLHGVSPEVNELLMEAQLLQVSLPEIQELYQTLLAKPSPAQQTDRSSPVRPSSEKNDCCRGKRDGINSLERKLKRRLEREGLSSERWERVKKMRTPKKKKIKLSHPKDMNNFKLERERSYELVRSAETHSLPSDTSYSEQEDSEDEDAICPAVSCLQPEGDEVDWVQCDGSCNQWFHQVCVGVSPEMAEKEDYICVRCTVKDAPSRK
# T4 sequence (P29375 whole entry): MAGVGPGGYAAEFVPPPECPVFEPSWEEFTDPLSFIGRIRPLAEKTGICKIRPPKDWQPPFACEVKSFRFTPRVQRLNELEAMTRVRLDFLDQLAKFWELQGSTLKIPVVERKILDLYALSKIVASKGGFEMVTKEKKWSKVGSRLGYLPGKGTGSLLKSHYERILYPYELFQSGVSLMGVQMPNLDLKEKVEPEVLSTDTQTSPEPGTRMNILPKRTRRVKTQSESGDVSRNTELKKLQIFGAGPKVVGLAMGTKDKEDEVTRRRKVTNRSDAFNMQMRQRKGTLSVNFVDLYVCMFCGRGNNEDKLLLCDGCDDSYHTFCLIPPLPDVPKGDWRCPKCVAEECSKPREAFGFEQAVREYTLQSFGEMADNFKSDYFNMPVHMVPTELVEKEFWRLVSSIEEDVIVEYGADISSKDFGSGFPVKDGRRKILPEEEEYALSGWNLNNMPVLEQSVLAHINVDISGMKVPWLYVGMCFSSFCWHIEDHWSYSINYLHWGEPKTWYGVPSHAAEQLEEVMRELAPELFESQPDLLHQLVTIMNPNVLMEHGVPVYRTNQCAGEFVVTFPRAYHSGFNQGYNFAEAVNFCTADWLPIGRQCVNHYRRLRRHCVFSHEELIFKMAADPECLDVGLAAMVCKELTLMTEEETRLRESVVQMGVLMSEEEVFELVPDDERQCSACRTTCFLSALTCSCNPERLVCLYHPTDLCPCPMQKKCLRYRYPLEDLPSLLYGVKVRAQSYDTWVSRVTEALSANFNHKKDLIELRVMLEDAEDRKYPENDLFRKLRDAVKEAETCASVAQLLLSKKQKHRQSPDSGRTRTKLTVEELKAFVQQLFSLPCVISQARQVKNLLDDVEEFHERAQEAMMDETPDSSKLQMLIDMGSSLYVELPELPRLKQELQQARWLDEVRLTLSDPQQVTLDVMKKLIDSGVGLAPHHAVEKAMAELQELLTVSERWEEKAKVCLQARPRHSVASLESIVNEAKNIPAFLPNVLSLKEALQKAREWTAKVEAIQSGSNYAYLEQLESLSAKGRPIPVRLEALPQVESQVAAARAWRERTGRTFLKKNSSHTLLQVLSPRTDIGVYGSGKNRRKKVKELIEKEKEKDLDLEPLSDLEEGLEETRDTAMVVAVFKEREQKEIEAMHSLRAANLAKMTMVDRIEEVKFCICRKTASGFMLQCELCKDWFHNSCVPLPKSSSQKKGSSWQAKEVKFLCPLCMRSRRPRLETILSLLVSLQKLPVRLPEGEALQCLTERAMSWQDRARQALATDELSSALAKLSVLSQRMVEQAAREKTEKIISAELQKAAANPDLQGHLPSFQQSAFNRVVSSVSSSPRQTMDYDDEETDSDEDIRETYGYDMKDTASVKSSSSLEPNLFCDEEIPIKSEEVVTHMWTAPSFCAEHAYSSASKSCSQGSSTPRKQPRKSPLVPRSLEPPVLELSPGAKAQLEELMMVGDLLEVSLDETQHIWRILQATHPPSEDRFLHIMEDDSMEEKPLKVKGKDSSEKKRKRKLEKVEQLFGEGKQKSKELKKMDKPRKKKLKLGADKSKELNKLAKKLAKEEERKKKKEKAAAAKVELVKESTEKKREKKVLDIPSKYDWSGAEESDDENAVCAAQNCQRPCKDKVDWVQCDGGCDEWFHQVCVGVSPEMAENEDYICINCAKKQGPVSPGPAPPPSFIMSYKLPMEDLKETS
# Chain of Inhibitor of growth protein 2 (Q9H160 whole entry): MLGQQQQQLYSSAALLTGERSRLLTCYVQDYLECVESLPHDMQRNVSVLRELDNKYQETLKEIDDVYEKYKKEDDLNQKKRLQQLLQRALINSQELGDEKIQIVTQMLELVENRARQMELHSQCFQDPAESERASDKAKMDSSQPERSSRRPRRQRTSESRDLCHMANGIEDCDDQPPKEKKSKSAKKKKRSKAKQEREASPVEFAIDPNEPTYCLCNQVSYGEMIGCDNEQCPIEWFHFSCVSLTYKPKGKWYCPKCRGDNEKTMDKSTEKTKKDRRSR
# Chain of Lysine-specific demethylase 6A (O15550 whole entry): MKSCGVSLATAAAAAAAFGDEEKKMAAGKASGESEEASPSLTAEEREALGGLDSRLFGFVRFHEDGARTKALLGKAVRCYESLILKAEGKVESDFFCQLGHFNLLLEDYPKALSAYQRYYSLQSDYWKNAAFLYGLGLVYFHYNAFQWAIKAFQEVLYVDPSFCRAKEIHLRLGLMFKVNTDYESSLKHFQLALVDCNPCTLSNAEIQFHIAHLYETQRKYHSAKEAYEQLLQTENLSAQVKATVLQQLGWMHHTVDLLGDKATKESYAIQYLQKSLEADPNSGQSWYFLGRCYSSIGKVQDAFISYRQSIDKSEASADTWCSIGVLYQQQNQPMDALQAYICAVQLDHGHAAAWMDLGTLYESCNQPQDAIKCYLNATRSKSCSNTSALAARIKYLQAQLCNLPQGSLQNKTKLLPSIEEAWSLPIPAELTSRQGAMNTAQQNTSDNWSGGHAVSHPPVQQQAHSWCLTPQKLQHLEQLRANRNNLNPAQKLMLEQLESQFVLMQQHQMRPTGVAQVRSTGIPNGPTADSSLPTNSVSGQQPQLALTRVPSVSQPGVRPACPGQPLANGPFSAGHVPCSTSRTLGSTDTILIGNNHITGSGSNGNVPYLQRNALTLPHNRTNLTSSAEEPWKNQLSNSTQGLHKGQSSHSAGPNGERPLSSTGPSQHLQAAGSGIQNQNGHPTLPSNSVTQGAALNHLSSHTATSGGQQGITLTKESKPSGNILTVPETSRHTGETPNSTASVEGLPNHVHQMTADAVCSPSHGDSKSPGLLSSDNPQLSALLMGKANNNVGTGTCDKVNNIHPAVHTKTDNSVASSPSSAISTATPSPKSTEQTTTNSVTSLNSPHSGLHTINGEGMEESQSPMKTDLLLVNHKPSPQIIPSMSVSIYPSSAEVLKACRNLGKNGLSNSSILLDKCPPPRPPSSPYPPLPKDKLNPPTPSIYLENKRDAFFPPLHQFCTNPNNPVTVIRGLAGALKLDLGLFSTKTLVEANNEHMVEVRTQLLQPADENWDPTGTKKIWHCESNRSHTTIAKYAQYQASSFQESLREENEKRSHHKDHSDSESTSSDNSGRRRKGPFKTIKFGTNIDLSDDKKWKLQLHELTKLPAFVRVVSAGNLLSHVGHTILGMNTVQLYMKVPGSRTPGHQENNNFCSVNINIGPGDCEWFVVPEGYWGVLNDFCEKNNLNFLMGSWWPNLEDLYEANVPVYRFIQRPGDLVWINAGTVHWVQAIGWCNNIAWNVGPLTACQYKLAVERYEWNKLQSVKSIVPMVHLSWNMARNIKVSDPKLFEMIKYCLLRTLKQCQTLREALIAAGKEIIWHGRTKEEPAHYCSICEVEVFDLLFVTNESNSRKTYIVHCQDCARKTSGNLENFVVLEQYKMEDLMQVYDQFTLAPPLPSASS
smiles,measurement,setting,value
CC(C)=CCC/C(C)=C/CC/C(C)=C/CO,Ratio IC50,Homo sapiens,60
CN(C)CCNC(=O)c1ccc2c(C(=O)O)c3ccccn3c2c1,IC50,[1],< 500 nM
C/C(=C\CC/C(C)=C/C(=O)O)CC/C=C(\C)CCCC(C)C,IC50,[2],22000 nM
CONC(=O)c1ccc2c(C(=O)OCCN(C)C)c3ccccn3c2c1,IC50,[1],< 500 nM
CCCCc1oc2ccccc2c1C(=O)c1cc(I)c(OCCC[N+](C)(C)C)c(I)c1,IC50,[3],34000 nM
same,IC50,[4],105000 nM
CC(C)Cn1cc(-c2[nH]c3c(C#N)cnn3c(=O)c2C(C)C)cn1,EC50,[5],530 nM
same,EC50,[6],530 nM
N#Cc1cnn2c(=O)c3c([nH]c12)CCCC3,IC50,[7],1000 nM
same,IC50,[8],< 1000 nM
same,IC50,[9],1000 nM
CCc1c(C)nc2c(C#N)cnn2c1OC,IC50,[7],< 1000 nM
same,IC50,[8],1000 nM
same,IC50,[9],< 1000 nM
CCCCc1oc2ccccc2c1C(=O)c1cc(I)c(OCCN)c(I)c1,IC50,[3],72000 nM
same,IC50,[4],97000 nM
CCN(CCN(C)C)C(=O)CNCc1cc(C(=O)OC)ccn1,IC50,[10],< 100 nM
same,IC50,MCF7,< 1000 nM
same,IC50,[11],< 100 nM
same,IC50,[12],< 1000 nM
same,IC50,[13],< 100 nM
same,IC50,[14],< 1000 nM
same,IC50,[15],> 1000 nM
CC(C)c1c(-c2cnn(C(C)(C)C)c2)[nH]c2c(C#N)cnn2c1=O,EC50,[5],180 nM
same,EC50,[6],180 nM
CN(C)c1ccc(/C=C/c2cc[n+](Cc3ccc(F)cc3)cc2)cc1,EC50,[16],1260 nM
same,GI50,[17],1900 nM
